row,SMILES,melting point
1,Cn1nc(-c2ccccc2)c2c(C(F)(F)F)cc(OCC(=O)N[C@H]3CCc4ccccc43)nc21,203 to 205 °C
2,O=C(O)c1cc(F)c(F)c(C2CC2)c1F,95 to 97 °C
3,C=CCOC(=O)C(=[N+]=[N-])C(=O)CC1CC(=O)N1 (centres undefined),83 °C
4,Cn1c(Cl)nc2cc(F)ccc21,138 to 141 °C
5,COC(=O)Cc1ccc(O)c(NC(=O)c2c(C)c(OC)c(C)c(C)c2OC)c1,98 to 100 °C
6,Cc1cc(O)c(C(C)(C)C)cc1N,191 to 192 °C
7,Cc1cccc(-c2[nH]c(C(C)C)nc2-c2cccc(-n3ccnc3)c2)n1,158 to 161 °C
8,O=C1CC(c2cccnc2)=NN1c1ccccc1,102 to 103 °C
9,CNC(=O)Nc1snc(N(C)C)c1C#N,240 to 241 °C
10,CCOC(=O)c1ccc(/C=C(\C)c2ccc3c(c2)C(C)(C)CCCC3)cc1,69 to 70 °C
11,CCOC(=O)/C=C/c1ccc(O)c(Cl)c1,104 to 106 °C
12,CC(C)CNCc1cnc2[nH]c(-c3cc(OCc4ccccc4)ccc3OC(C)C)nc2c1,101 to 103 °C
13,NC(=O)CNC(=O)CN1CC(O)CC1=O (centres undefined),158 to 160 °C
14,CC(=O)n1nc(N2CCN(C)CC2)c2ccccc21,106 to 108 °C
15,COc1cc(C(=O)n2c3c(c4ccccc42)CC(C(=O)O)CC3)cc(OC)c1OC (centres undefined),234 to 236 °C
16,CCNC(=O)c1cccc(F)c1N,60 °C
17,CC(CCC(=O)Cl)C1CCC2C3CCC4CCCCC4(C)C3CCC12C (centres undefined),104 to 106 °C
18,OC1CSC(Oc2ccc(-c3cncnc3)nc2)C(O)C1O (centres undefined),188 °C
19,CC(=O)CCCCCCC(CC(C)C(O)C(N)CO)c1cccs1 (centres undefined),96 to 99 °C
20,CCOC(=O)c1conc1-c1cccc(C#N)c1,135 to 137 °C
21,CN1Cc2c(C#Cc3ccccc3)ncn2-c2cccc(Br)c2C1=O,207 to 209 °C
22,CN(c1cc(F)c(C#N)cc1F)c1nnnn1-c1ccc(F)cc1,162 °C
23,COc1cc2cc[nH]c2cc1OCCCN1CCC(c2noc3cc(F)ccc23)CC1,156 to 158 °C
24,COc1ccc(-c2cc(=S)n(Cc3ccccc3)nc2-c2ccc(OC)cc2)cc1,135 to 149 °C
25,COCC(C)Oc1cc(Oc2ccc(S(C)(=O)=O)cc2)cc2cc(C3=NCC(CC(N)=O)S3)[nH]c12 (centres undefined),107 to 112 °C
26,CCOC(=O)c1cn(-c2ccc(F)c(NC(C)(C)C)n2)c2c(Cl)c(F)c(F)cc2c1=O,207 to 210 °C

row,SMILES,melting point
1,Nc1cc([N+](=O)[O-])c2c(c1N)CCCC2,181 to 182 °C
2,COCCO[C@@H]1c2ccn3c(Br)c(C)nc3c2N[C@H](c2ccccc2)[C@H]1O,153 to 154 °C
3,O=C(O)c1cccc2c1CCc1ccccc1S2,186 to 187 °C
4,Cn1nc(C(F)(F)F)c(C(=O)O)c1Sc1ccc(F)cc1,190 to 194 °C
5,OC(c1ccccc1)C1CCN(CCCN(c2ccccc2)c2ccccc2)CC1 (centres undefined),129 to 130 °C
6,CCC1(C2CCN(c3ncnc4cc(OC)c(OC)cc34)CC2)CO1 (centres undefined),138 to 139 °C
7,COc1ccccc1OCC(O)CN1CCCC(Cn2c(=O)[nH]c3ccc(Cl)cc32)C1 (centres undefined),167 °C
8,COc1cc(Cl)ccc1CBr,42 to 45 °C
9,O=C(CCCN1CCN(c2cc(-c3ccc(F)cc3)c3c(n2)CCC3)CC1)c1ccc(F)cc1,115 to 116 °C
10,CC(=O)NC(c1ccc(F)cc1)(c1cc2c3c(c1)c(-c1cccc(Cl)c1)cc(=O)n3CC2)c1nncn1C (centres undefined),196 °C
11,Cc1ccc(-c2nc3ccc(N4C[C@H]5CN(C)C[C@H]5C4)nn3c2-c2ccncc2)o1,178 to 181 °C
12,C=C1CC(C)(c2ccc(Nc3c4ccccc4nc4occc34)cc2)OC1=O (centres undefined),85 to 87 °C
13,CCCCCCCCCCCCCCCCCCOc1cc(O)cc(C(=O)OCc2ccccc2)c1,72 to 75 °C
14,CCc1c(-c2ccc(O)cc2)c2cc(COCCN(CC)CC)c3cccc1n32,93 to 95 °C
15,CC(C)(C)c1cc(OCC(=O)O)cc(C(C)(C)C)c1O,172 to 173 °C
16,O=c1n(C2CCCCC2)c2cc(Cl)ccc2n1S(=O)(=O)c1ccc([N+](=O)[O-])cc1,162 °C
17,OCCCc1cc2c(cc1O)CCO2,103 to 104 °C
18,COC(=O)/C=C\C1C(C(=O)O)C1(C)C (centres undefined),106 °C
19,COc1cc(NC(=O)Nc2ccc(C3CCN(C(=O)Nc4ccc(OCCO)cc4Cl)CC3)cc2)cc(OC)c1,101 to 105 °C
20,O=C(Nc1cccc(F)c1)NC1CCN(S(=O)(=O)c2ccccc2)CC1,186 to 188 °C
21,N#Cc1sc(N2CCCC2)nc1N,305 to 308 °C
22,CC(C)OP(=O)(/C=C/CCn1cnc2c(N)nc(N)nc21)OC(C)C,211 to 213 °C
23,CNc1nc(SC)nc(N(C)C)c1[N+](=O)[O-],128 to 132 °C
24,CCOC(=O)C1=C(COCc2cc(=O)n(C)c(N)n2)NC(C)=C(C(=O)OC)C1c1cccc(Cl)c1Cl (centres undefined),202 to 205 °C
25,CCC(C=O)(CC)SN(C)C(=O)ON=C1SC(C)(C)C(=O)N1C,105 to 106 °C
26,O=C(NCCCn1ccnc1)C(c1ccccc1)c1ccccc1,136 to 138 °C

row,SMILES,melting point
1,COc1ccnc(CSc2nc3cscc3n2CO)c1,125 to 127 °C
2,O=C(C1CCN(Cc2ccccc2)CC1)N1CCc2ccccc2C1,98 to 100 °C
3,CCCn1nnc2c(Nc3ccc(C(C)C)cc3Br)nc(C)nc21,80 to 81 °C
4,N=C(N)c1ccc(C(=O)Nc2ccc(Nc3cc(-c4cccc5c4oc4ccccc45)ncn3)cc2)cc1,213 to 219 °C
5,N#Cc1cc(CO)nc(C(=O)Nc2ccc(F)cn2)c1,232 °C
6,OCCc1coc2c(O)cccc12,116 to 117 °C
7,O=C(NCCCCCC(=O)c1ncco1)c1cc2ccccc2[nH]1,176 to 179 °C
8,COc1ccc2c(c1)cc1n2CCC(COC(C)=O)C1 (centres undefined),98 to 100 °C
9,COC(=O)CCCc1cc2nc(Cl)ccc2n1S(=O)(=O)c1cc(C)cc(C)c1,138 °C
10,CON=C(C)c1cc(-c2ccc(S(C)(=O)=O)cc2)c(-c2ccc(F)cc2)s1,200 to 203 °C
11,COc1ccc(Br)c(C(=O)N2CCN(S(=O)(=O)c3ccc(F)cc3F)CC2)c1,194 °C
12,Cc1c(CO)c2cnnc(OCc3ccccc3)c2n1Cc1ccccc1,130 to 132 °C
13,O=C1OC(=O)c2cc(N=C=S)ccc21,106 to 108 °C
14,Cc1nc2c(OCc3c(Cl)ccc(S(=O)(=O)N4CCC[C@H]4C(=O)NCCCNC(=O)c4ccc(C(N)=NO)cc4)c3Cl)cccn2c1Cl,155 °C
15,O=C(Cc1ccccc1Cl)c1ccc(I)cc1,105 to 106 °C
16,CN(C)Cc1ccc(CSCCNC(=S)NC(=O)c2ccccc2)o1,83 to 85 °C
17,COCc1cc2c([N+](=O)[O-])cccc2cn1,91 °C
18,O=C(Cc1ccccc1)NC1C(=O)N2C1SC1(CCN(c3ccccc3)CC1)C2C(=O)OCc1ccccc1 (centres undefined),120 to 121 °C
19,N#CC(C(=O)Nc1ccccc1)C(=O)c1ccc[nH]1 (centres undefined),207 to 209 °C
20,Cc1c(SCCCCl)ccnc1CSc1nc2ccccc2[nH]1,112 to 114 °C
21,CNCCNc1noc2cc(OC)ccc12,136 to 137 °C
22,CCOC(=O)N(c1ccccc1[N+](=O)[O-])c1cccc(C)c1C,71 to 73 °C
23,c1cnc(N2CCN(CCCCn3cccn3)CC2)nc1,124 °C
24,CC(C)(C)n1cc(-c2ccc(I)cc2)c2c(N)ncnc21,188 to 189 °C
25,CCN(CC)c1ccc(-c2cc(-c3ccc(C(=O)O)cc3)ccc2CCCNC(C)C)cc1C(C)(C)C,253 °C
26,COc1ccc2c(c1)N(C)C(=O)C2C (centres undefined),44 to 46 °C

row,SMILES,melting point
1,O=C1SC(=Cc2cccs2)C(=O)N1CCCCSc1cccc2nccn12,116 to 117 °C
2,OCCc1c(-c2ccccc2)nc(Cl)n2ncnc12,104 to 105 °C
3,N#CCCOc1ccc(F)cc1,84 to 85 °C
4,CC1=C(C)C(=O)C(C(CCCCCC(=O)O)c2cccnc2)=C(C)C1=O (centres undefined),126 to 127 °C
5,CNc1onc2c1CCC2,52 °C
6,O=S1(=O)c2cccc3cccc(c23)N1CCN1CCC(CC2CNc3ccccc3C2)CC1 (centres undefined),134 °C
7,Cn1c([N+](=O)[O-])cnc1C=Cc1cccc(C(N)=O)c1,254 to 256 °C
8,C=CCNc1nc(NCC(F)(F)F)nc2ccc([N+](=O)[O-])cc12,221 to 222 °C
9,O=c1[nH]cc(-c2cc(-c3cnc4ccccc4c3)ccn2)n1-c1ccc(N2CCNCC2)c(C(F)(F)F)c1,155 °C
10,O=C(O)c1cc2cc(Cl)ccc2nc1NC(Cc1ccc(Oc2ccc3ccccc3n2)cc1)C(=O)O (centres undefined),136 °C
11,O=C(NC1=NCCCN1)Nc1c(Cl)cccc1Cl,179 to 180 °C
12,ClCc1coc(-c2ccc(Cl)o2)n1,107 to 108 °C
13,Cc1ccc(S(=O)(=O)Oc2ccc3nc(S(N)(=O)=O)sc3c2)cc1,142 °C
14,Oc1cccc2c1CC1OC1C2 (centres undefined),143 to 146 °C
15,COC(=O)c1ccc(CCl)nc1,63.5 to 63.8 °C
16,CC(=O)Oc1cc(OC(C)=O)c2c(c1)OC(c1ccc(OC(C)=O)c(OC(C)=O)c1)CC2 (centres undefined),143 to 144 °C
17,CCn1c(Br)cc2c(C)nc3c(Br)cnn3c21,135 to 137 °C
18,CC(C)(C)OC(=O)NC(CC1CCCCC1)C(O)C(O)C(CC1CCCCC1)NC(=O)OC(C)(C)C (centres undefined),224 to 226 °C
19,CCc1cccc(CC)c1NC(=O)Nc1sc2cc(OC)c(OC)cc2c1-c1ccccc1Cl,229 to 231 °C
20,COc1ccc(C(=O)Nc2ccc(C(C)(C)CNC(=O)c3cnc4[nH]ccc4c3)cc2)cc1OC,256 to 258 °C
21,CN(C(=O)c1cc2ccccc2c(-c2ccccc2Cl)n1)C1CCCCC1,131 °C
22,CCOC(=O)c1cc(CC)sc1Nc1cc(F)cc(F)c1[N+](=O)[O-],74 to 75 °C
23,CCCc1nc2c(N)nc3c(c2n1CC1(O)CCCC1)NCCC3,207 to 208 °C
24,COC(=O)c1ccc(C(=O)Nc2ccc3c(c2)C(C)(C)CCC3(C)C)nc1,176 to 177 °C
25,CCOc1cccc(S(=O)(=O)c2ccc(C)nc2Nc2c(C)cc(C)cc2C)c1,96 to 97 °C
26,CC(C)OC(=O)CCN=c1sc2ccccc2s1,60 to 61 °C

# Reference: a melting point compilation (Tetko et al.; mined from patent text by program, amines drawn as free bases though some values may be those of a salt)
